How the values were obtained:
VDR = target: T1, VDR (Mus musculus, UniProt P48281); assay: Cyp24a1 induction assay for VDR agonism in 4TO7 cells; format: cell-based; conditions: 24 h
T1 construct: endogenous in cells; host or cells: 4TO7 and 4T1 mouse triple-negative breast cancer cells
T1 sequence (P48281 1-422): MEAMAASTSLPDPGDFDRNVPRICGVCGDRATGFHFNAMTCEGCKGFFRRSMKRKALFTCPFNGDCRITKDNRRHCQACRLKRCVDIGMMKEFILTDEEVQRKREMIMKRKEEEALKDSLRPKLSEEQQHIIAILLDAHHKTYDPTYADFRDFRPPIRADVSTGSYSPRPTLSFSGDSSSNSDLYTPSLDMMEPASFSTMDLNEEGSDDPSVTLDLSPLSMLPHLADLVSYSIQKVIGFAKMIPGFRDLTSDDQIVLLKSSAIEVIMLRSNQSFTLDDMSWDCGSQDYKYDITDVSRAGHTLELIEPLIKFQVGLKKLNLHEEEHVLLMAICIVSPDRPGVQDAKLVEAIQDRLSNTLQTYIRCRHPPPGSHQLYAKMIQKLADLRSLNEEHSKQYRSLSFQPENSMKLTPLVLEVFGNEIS
Experimental: Figure 5 (a) and (b) Analysis of induced Cyp24a1 expression in 4TO7 (a) and 4T1 (b) cells to test for VDR agonism of DK-406 and heterocyclic analogues after 24 h treatment. c-e. Analysis of the cytotoxicity of hybrid compounds after 24 h using the MTGlo assay (see Methods for details) in 4TO7 (c), 4T1 (d) and MDA-MB-231 (e) cells. […] Each condition was compared to control. *: p ≤ 0.05, **: p ≤ 0.01, ***: p ≤ 0.001, ****: p ≤ 0.0001, ns: not significant.
As previously, we were interested in studying the efficacy of hybrids in models of TNBC. We used the 4T1 cell line[20] as well as the related TNBC cell line 4TO7, which was derived from the same mouse tumor as 4T1 cells in Balb/c mice[33]. 4TO7 cells readily form primary tumors. […] These lines also have the advantage that anti-tumor efficacy studies can be performed in Balb/c mice, which have intact immune systems. Compounds were initially tested for VDR agonist activity in 4TO7 cells by screening induction of the VDR target gene Cyp24a1. […] The pyridyl hybrids were then tested for efficacy in vitro in 4TO7 and 4T1 cells using an MT-Glo assay in which only viable cells can convert a precursor into a substrate for a luciferase bioluminescence assay (Fig. 5c,d; see Methods for details).
Mouse 4T07 cells and 4T01 cells were cultured in DMEM (319–005-CL; WISENT Inc.) supplemented with 10% heat-inactivated FBS. MB-MDA231 cells were cultured in Leibovitz’s L-15 medium with 10% heat-inactivated FBS in the absence of CO2.
RNA extraction was performed with the FavorPrep tissue total RNA mini kit (FAVORGEN Biotech Corporation—FATRK 001) as per manufacturer’s instructions. cDNA was obtained from 1 µg of RNA using 5X All-in-One RT Mastermix (Applied Biological Materials (abm) Inc.—G485) and diluted 5 times. qPCR was performed with BrightGreen 2X q-PCR MasterMix (abm—MasterMix-LR-XL) on a Roche LightCycler 96 system. Expression of targeted genes was normalized to 18S RNA.

4TO7 cells = assay: RNAseq gene expression profiling in 4TO7 cells; format: cell-based, mouse; conditions: relative to control
Experimental: Cells were treated for 6 h to focus more on genes directly regulated by the VDR, or for 24 or 48 h to gain insight into longer-term effects on gene expression.
McGill Genome Centre performed a quality control before sequencing in paired-end at 50 M reads by Illumina NovaSeq 6000 S4 PE100. Sets of genes regulated in the different conditions were sent to us and downstream analysis were performed.
Table S1 and Table S2 : See Excel files with RNAseq results and analysis
48 hours prior to RNA extraction. Samples were prepared in triplicate and run on Illumina NovaSeq 6000 S4
PE100. For assessing differential gene expression for RNAseq data, the LIMMA package inR was used.
RNAseq results and statistical analyses from D, S, S+D, DK-406, and AM-193 conditions measured relative to
AM-193 for 6 or 24 hours prior to RNA extraction . Samples were prepared in triplicate and run on Illumina
NovaSeq 6000 S4 PE100. For assessing differential gene expression for RNAseq data, the LIMMA package in R was […]

[1] = 6 h, RNAseq Supplemental table 2, 1 µM AM-193, 10 µM DK-406, 100 nM 1,25D and SAHA
[2] = RNAseq Supplemental table 2, 1 µM AM-193, 10 µM DK-406, 100 nM 1,25D and SAHA
[3] = 6 h, RNAseq Supplemental table 1
[4] = 48 h, RNAseq Supplemental table 1

**Q.** How did the “VDR agonist activity (Cyp24a1 induction)” value (VDR) turn out when `CCC(CC)(c1ccc(OCC(O)C(C)(C)C)c(C)c1)c1ccc(OCC(=O)NO)cn1` (centres unmarked) [AM-155] was run?
**A.** The value was “weakly potent VDR agonists”.

**Q.** `CCC(CC)(c1ccc(OCC(O)C(C)(C)C)c(C)c1)c1ccc(OCCCC(=O)NO)cn1` (centres unmarked) [AM-171] was tested. Which “VDR agonist activity (Cyp24a1 induction)” value (VDR) did it give?
**A.** Its value is “weakly potent VDR agonists”.

**Q.** How did the “VDR agonist activity (Cyp24a1 induction)” value (VDR) turn out when `CCC(CC)(c1ccc(OCCCCCC(=O)NO)cc1)c1ccc(OCC(O)C(C)(C)C)c(C)n1` (centres unmarked) [AM-193] was run?
**A.** Its value is “partial agonists”.

**Q.** And the “potency in Cyp24a1 induction assay relative to DK-406” value (VDR)?
**A.** Its value is “approximately tenfold”.

**Q.** What about the “Aaas 6h Log Fold” value (4TO7 cells; [1]) of the same molecule?
**A.** The value was -0.023.

**Q.** What about the “Aacs 6h Log Fold” value (4TO7 cells; [1]) of the same molecule?
**A.** Its value is 0.016.

**Q.** And the “Aagab 6h Log Fold” value (4TO7 cells; [1])?
**A.** The value was 0.124.

**Q.** And the “Aak1 6h Log Fold” value (4TO7 cells; [1])?
**A.** Its value is 0.035.

**Q.** What about the “Aamdc 6h Log Fold” value (4TO7 cells; [1]) of the same molecule?
**A.** The value was -0.120.

**Q.** What about the “Aaas 24h Log Fold” value (4TO7 cells; [2]) of the same molecule?
**A.** The value was -0.051.

**Q.** And the “Aacs 24h Log Fold” value (4TO7 cells; [2])?
**A.** The value was 0.142.

**Q.** And the “Aagab 24h Log Fold” value (4TO7 cells; [2])?
**A.** Its value is 0.131.

**Q.** What about the “Aak1 24h Log Fold” value (4TO7 cells; [2]) of the same molecule?
**A.** The value was 0.036.

**Q.** What about the “Aamdc 24h Log Fold” value (4TO7 cells; [2]) of the same molecule?
**A.** Its value is -0.210.

**Q.** With `CCC(CC)(c1ccc(C(=O)NCCCCCC(=O)NO)cc1)c1ccc(OCC(O)C(C)(C)C)c(C)c1` (centres unmarked) [DK-406] as the molecule, how does the “VDR agonist activity (Cyp24a1 induction)” value (VDR) read?
**A.** The value was “partial agonists”.

**Q.** What about the “Aaas 6h Log Fold” value (4TO7 cells; [3]) of the same molecule?
**A.** Its value is 1.019.

**Q.** And the “Aacs 6h Log Fold” value (4TO7 cells; [3])?
**A.** The value was 1.048.

**Q.** What about the “Aaed1 6h Log Fold” value (4TO7 cells; [3]) of the same molecule?
**A.** Its value is -1.030.

**Q.** What about the “Aagab 6h Log Fold” value (4TO7 cells; [3]) of the same molecule?
**A.** Its value is -1.033.

**Q.** And the “Aak1 6h Log Fold” value (4TO7 cells; [3])?
**A.** The value was 1.122.

**Q.** What about the “Aaas 6h Log Fold” value (4TO7 cells; [1]) of the same molecule?
**A.** Its value is 0.00118.

**Q.** What about the “Aacs 6h Log Fold” value (4TO7 cells; [1]) of the same molecule?
**A.** Its value is -0.179.

**Q.** And the “Aagab 6h Log Fold” value (4TO7 cells; [1])?
**A.** Its value is -0.076.

**Q.** And the “Aak1 6h Log Fold” value (4TO7 cells; [1])?
**A.** The value was 0.090.

**Q.** What about the “Aamdc 6h Log Fold” value (4TO7 cells; [1]) of the same molecule?
**A.** Its value is -0.107.

**Q.** What about the “Aaas 24h Log Fold” value (4TO7 cells; [2]) of the same molecule?
**A.** The value was -0.047.

**Q.** And the “Aacs 24h Log Fold” value (4TO7 cells; [2])?
**A.** Its value is 0.139.

**Q.** And the “Aagab 24h Log Fold” value (4TO7 cells; [2])?
**A.** Its value is 0.108.

**Q.** What about the “Aak1 24h Log Fold” value (4TO7 cells; [2]) of the same molecule?
**A.** The value was 0.086.

**Q.** What about the “Aamdc 24h Log Fold” value (4TO7 cells; [2]) of the same molecule?
**A.** The value was -0.190.

**Q.** What about the “Aaas 48h Log Fold” value (4TO7 cells; [4]) of the same molecule?
**A.** Its value is -1.331.

**Q.** What about the “Aacs 48h Log Fold” value (4TO7 cells; [4]) of the same molecule?
**A.** Its value is 1.275.

**Q.** And the “Aaed1 48h Log Fold” value (4TO7 cells; [4])?
**A.** The value was -1.421.

**Q.** What about the “Aagab 48h Log Fold” value (4TO7 cells; [4]) of the same molecule?
**A.** Its value is 1.489.

**Q.** And the “Aak1 48h Log Fold” value (4TO7 cells; [4])?
**A.** Its value is -1.002.

From publication PMC9038752, “Molecular mechanisms of bifunctional vitamin D receptor agonist-histone deacetylase inhibitor hybrid molecules in triple-negative breast cancer” (Scientific Reports, 2022)
